Data: patent EP4389111A1, “METHOD OF PREPARATION OF C[…] […] AND C[…] […]” (Aero-Bw K. Domagala Sp. Jawna, priority 2022, dated 2024)
“And” between values parts separate entries of the source, which are not always exact repeats. Identical values can stand only once.

Test system: Salmonella typhimurium TA98
Experiment: Ames test, strain TA98 (reading frame shift)
Type: cell-based
Settings: positive control at 2 µg/mL
Text: The test allows the identification of substances that cause mutations such as reading frame shifts or base pair substitutions. The test uses modified strains of Salmonella typhimurium bacteria carrying mutations in the operon of the gene encoding the amino acid histidine.
The aim of the study was to assess the mutagenic potential of three extracts obtained from stem cells using two strains of Salmonella typhimurium carrying two types of mutations: TA 98—reading frame shift and TA 100—base pair substitution.
The experimental procedure was carried out basing on the manufacturer's experimental protocol (Xenometrix).

With `O=[N+]([O-])c1ccc2c(c1)Cc1ccccc1-2` [Extract 2-NF, 2-nitrofluorene] the “MOI (Multiplicity of induction compared to baseline)” value was 6.9 and 5.6.
